Assay results reported in patent publication US7968526B2, “Antisense oligonucleotides directed to ribonucleotide reductase R2 and uses thereof in the treatment of cancer” (Lorus Therapeutics Inc., priority 2003, dated 2011).
“Also recorded” adds a separate entry of the source.

Columns and labels:
[1] = test system: MDA-MB-231 human breast cancer cells; assay: MDA-MB-231 breast tumour growth in CD-1 nude mice (3.3); assay type: in vivo, human cells in mice
Protocol: (§1) Treatments lasted for 14 days thereafter. Antitumour activities were estimated by the inhibition of tumour volume, which was measured with a caliper on four different occasions over the treatment period. Each point represents mean tumour volume calculated from 5 animals per experimental group. […] Control animals (control) received saline alone for the same period. At the end of the treatments, the animals were sacrificed, tumours were excised and their weights were measured. Each bar represents mean tumour weight calculated from 6 animals per experimental group. […] Treatments lasted for 24 days thereafter. Antitumour activities were estimated by the inhibition of tumour volume, which was measured with a caliper at two-day intervals over the treatment period. Each point represents mean tumour volume calculated from 4 animals per experimental group. […] Treatments lasted for 24 days thereafter. Antitumour activities were estimated by the inhibition of tumour volume, which was measured with a caliper at two-day intervals over the treatment period. Each point represents mean tumour volume calculated from 4 animals per experimental group. […] Each point represents mean tumour volume calculated from 5 animals per experimental group. […] Antitumour activities were estimated by the inhibition of tumour volume, which was measured with a caliper on four different occasions over 16-day period. Each point represents mean tumour volume calculated from 5 animals per experimental group. […] Antitumour activities were estimated by the inhibition of tumour volume, which was measured with a caliper at two-day intervals over the treatment period. Each point represents mean tumour volume calculated from 5 animals per experimental group. […] Antitumour activities were estimated by the inhibition of tumour volume, which was measured with a caliper at various time intervals over the span of 30 days. Each point represents mean tumour volume calculated from 6 animals per experimental group. […] Antitumour activities were estimated by the inhibition of tumour volume, which was measured with a caliper. […]

[2] = test system: HeLa S3 human cervical cancer cells; assay: HeLa S3 cervical tumour growth in SCID mice (3.11); assay type: in vivo, human cells in mice
Protocol: as §1

[3] = test system: Caki renal tumour xenografts; assay: Caki renal tumour xenografts in SCID/beige mice (immune stimulation); assay type: in vivo, human cells in mice; details: Caki renal tumour xenografts in SCID/beige mice (lack B, T and NK cell function)
Protocol: To directly determine whether SEQ ID NO:1 treatment results in CpG stimulation of NK-mediated anti-tumour activity, the efficacy of SEQ ID NO:1 on human tumour xenografts in SCID/beige mice was assessed (FIG. 32). SCID/beige mice lack B, T and NK cell function and as such these mice cannot mount a significant innate or acquired immune response.

[4] = 21-day continuous infusion toxicity study in the monkey with a 3-week recovery; assay type: in vivo
Protocol: A second repeat-dose study was conducted in monkeys to evaluate the toxicity associated with administration of test article by continuous intravenous infusion for 21 days followed by a 21-day recovery period. Twenty-eight monkeys were administered one of the following dose levels; vehicle control, 2 mg/kg/day, 10 mg/kg/day, or 50 mg/kg/day. Toxicokinetic samples were collected prior to the initiation of infusion, approximately 8, 24, 48, and 96 hours following the start of infusion, and on Day 20 prior to the change in dose-syringes. […] As in the previous rat study, the 2 mg/kg/day dose level was identified as the no-adverse-effect-level (NOAEL).

[5] = test system: human tumour cell xenografts; assay: Human tumour cell xenografts in mice, compiled tumour weights (FIG. 29); assay type: in vivo, human cells in mice
Protocol: CD-1 athymic female nude mice, BALB/c nu/nu nude mice, SCID, and SCID beige mice were purchased from Charles River Laboratories (Montreal, Canada) and experiments were typically initiated when the mice were 6-7 weeks old. Human tumour cells were grown in appropriate growth medium and 3×10^6−1×10^7 cells suspended in 100 μl of PBS were subcutaneously injected into the right flank of the animals with a 23 gauge needle (cell number indicated in the figure legends). Each experimental group typically contained 10 mice. After the size of tumour reached a mean tumour volume of 50-100 mm^3, treatment was initiated. Antisense oligonucleotides (dissolved in saline) were administered by bolus infusion into the tail vein of animal every other day at the indicated dose. Anti-tumour activity was estimated by the measurement of tumour volume with a calliper at two-three day intervals. Tumour volume was calculated by a formula L×W×H/2, where L indicates length, W indicates width and H indicates height. Within 24 hours after the last treatment, the animals were sacrificed and tumour and body weights were measured.
Each data point represents tumour weight and standard error. […]

human whole blood = assay: Intravenous compatibility assay (haemolysis); assay type: cell-based; details: static or dynamic conditions
[6] = Human Cervical Carcinoma^2 in SCID mice, Day 17 after tumour implantation
[7] = continuous i.v. infusion 21 days

Substance: 5′-GGCTAAATCGCTCCACCAAG-3′ (all phosphorothioate, sugars by position and methylation of C not given here) [SEQ ID NO: 1, fully phosphorothioated antisense oligonucleotide that hybridizes to the coding region of R2 mRNA]
- Inhibition of tumour size ([1]; Human Breast Adenocarcinoma): Inhibition of tumour size by approximately 80%
- Inhibition of tumour weight ([1]; Human Breast Adenocarcinoma, Day 31 after tumour implantation): ~80% on Day 31 after tumour implantation
- Inhibitory effect on tumour growth (tumour volume, FIG. 18B) ([1]; MDA-MB-231, CD-1 nude mice, 10 mg/kg i.v. every other day, 24 days): strong inhibitory effects on the growth of human breast carcinoma
- Inhibitory effect on tumour growth (tumour volume and weight, FIG. 23) ([2]; HeLa S3, SCID mice, 10 mg/kg i.v. every other day, 14 days): strong inhibitory effects on the growth of human cervical carcinoma
- Inhibition of tumour size [2, 6]: approximately 60% in SCID mice on Day 17fter
- Inhibition of tumour weight [2, 6]: approximately 60% in SCID mice on Day 17fter
- Anti-tumour effect (FIG. 32) [3]: effectively treated; also recorded: equivalent in extent and kinetics to that obtained in the SCID mouse model; also recorded: anti-tumour activity is specific to the R2 complementary sequence
- Deaths ([4]; 2, 10 or 50 mg/kg/day continuous i.v. infusion 21 days): No unplanned deaths
- Reversibility of changes ([4]; 3-week post-dosing treatment-free period): reversed either completely or partially
- Toxicity findings ([4]; 10 and 50 mg/kg/day continuous i.v. infusion 21 days): splenic histiocytosis, anticoagulant effects, complement activation, and continuous infusion effects
- Target organs (histopathologic changes) [4, 7]: kidneys, liver, and lymph nodes
- no-adverse-effect-level (NOAEL) [4, 7]: 2 mg/kg/day
- Effect on tumour growth and endpoint weight ([5]; all cancer cell lines tested): significant decrease in tumour growth (volume over time) and endpoint weight
- p, difference in tumour weight between control and oligonucleotide treated groups ([5]; range of human tumour xenografts, 2.5 mg/kg to 10 mg/kg i.v. every second day, all cases): < 0.05
- Haemolytic activity (cell lysis and haemoglobin release) (human whole blood): did not cause haemolysis under static or dynamic conditions
